Source: the supplement of paper PMC4862054

Assays:
Experiment in all cases: normalised viability (% of control), CellTiter-Blue; higher = more viable cells (about 100 = DMSO control)
Details in all cases: incubation time: 72 h
CAL-85-1 [1] = tested on: CAL-85-1
How it was run: (§1)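 After 72 h on compound-loaded 384-well plates, breast cancer cell lines received 2.5 µl CellTiter-Blue reagent for 2 h at 37 °C. Fluorescence at 560/590 nm was scaled per plate so that vehicle was 100 and a positive kill control was 0. The value stands for normalised viability at a single listed concentration of the series.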

SK-BR-3 [2] = tested on: SK-BR-3
How it was run: as §1

MDA-MB-436 [3] = tested on: MDA-MB-436
How it was run: as §1

BT-549 [4] = tested on: BT-549
How it was run: as §1

CAL-148 [5] = tested on: CAL-148
How it was run: as §1

Hs578T [6] = tested on: Hs578T
How it was run: as §1

MDA-MB-453 [7] = tested on: MDA-MB-453
How it was run: as §1

CAL-120 [8] = tested on: CAL-120
How it was run: as §1

MFM-223 [9] = tested on: MFM-223
How it was run: as §1

MDA-MB-468 = tested on: MDA-MB-468
Procedure: (§2)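 DSRT, CellTiter-Blue viability, 72 h incubation. Signal is normalised to DMSO and benzethonium chloride controls. Value is the normalised response at dose 3.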

CAL-85-1 [10] = tested on: CAL-85-1; remark: listed apart in the source
Procedure: as §2

SK-BR-3 [11] = tested on: SK-BR-3; remark: listed apart in the source
Procedure: as §2

MDA-MB-436 [12] = tested on: MDA-MB-436; remark: listed apart in the source
Procedure: as §2

BT-549 [13] = tested on: BT-549; remark: listed apart in the source
Procedure: as §2

HCC1937 = tested on: HCC1937
Procedure: as §2

CAL-148 [14] = tested on: CAL-148; remark: listed apart in the source
Procedure: as §2

HDQ-P1 = tested on: HDQ-P1
Procedure: as §2

CAL-51 = tested on: CAL-51
Procedure: as §2

Hs578T [15] = tested on: Hs578T; remark: listed apart in the source
Procedure: as §2

BT-474 = tested on: BT-474
Procedure: as §2

MDA-MB-453 [16] = tested on: MDA-MB-453; remark: listed apart in the source
Procedure: as §2

CAL-120 [17] = tested on: CAL-120; remark: listed apart in the source
Procedure: as §2

HCC1143 = tested on: HCC1143
Procedure: as §2

DU-4475 = tested on: DU-4475
Procedure: as §2

HCC1599 = tested on: HCC1599
Procedure: as §2

MDA-MB-231 = tested on: MDA-MB-231
Procedure: as §2

MFM-223 [18] = tested on: MFM-223; remark: listed apart in the source
Procedure: as §2

C/C(=C\c1csc(C)n1)[C@@H]1C[C@@H]2O[C@]2(C)CCC[C@H](C)[C@H](O)[C@@H](C)C(=O)C(C)(C)[C@@H](O)CC(=O)N1 [Ixabepilone]
Details | normalised viability [%]
BT-474, 10 nM | 96.6
BT-549 [4], 1 nM | 69.2
BT-549 [4], 100 nM | 96.9
BT-549 [4], 1000 nM | 19.6
BT-549 [13], 10 nM | 95.2
CAL-51, 1 nM | 104
CAL-85-1 [1], 0.3 nM | 83.4
CAL-85-1 [1], 3 nM | 87.8
CAL-85-1 [1], 10 nM | 88.9
CAL-85-1 [10], 1 nM | 90.1
CAL-120 [8], 1 nM | 75.6
CAL-120 [8], 100 nM | 78.3
CAL-120 [8], 1000 nM | 50.4
CAL-120 [17], 10 nM | 76.4
CAL-148 [5], 0.3 nM | 95.2
CAL-148 [5], 3 nM | 97.1
CAL-148 [5], 10 nM | 92.8
CAL-148 [14], 1 nM | 90.5
DU-4475, 1 nM | 94.3
HCC1143, 10 nM | 77
HCC1599, 10 nM | 94.9
HCC1937, 10 nM | 95.2
HDQ-P1, 1 nM | 82.7
Hs578T [6], 1 nM | 107
Hs578T [6], 100 nM | 98.8
Hs578T [6], 1000 nM | 25
Hs578T [15], 10 nM | 81.2
MDA-MB-231, 10 nM | 98
MDA-MB-436 [3], 1 nM | 88.8
MDA-MB-436 [3], 100 nM | 90.1
MDA-MB-436 [3], 1000 nM | 51.7
MDA-MB-436 [12], 10 nM | 105
MDA-MB-453 [7], 0.3 nM | 108
MDA-MB-453 [7], 3 nM | 87.4
MDA-MB-453 [7], 10 nM | 87.3
MDA-MB-453 [16], 1 nM | 89.6
MDA-MB-468, 10 nM | 91.1
MFM-223 [9], 1 nM | 76.8
MFM-223 [9], 100 nM | 75.8
MFM-223 [9], 1000 nM | 31.6
MFM-223 [18], 10 nM | 73.3
SK-BR-3 [2], 1 nM | 87.8
SK-BR-3 [2], 100 nM | 82.5
SK-BR-3 [2], 1000 nM | 12.6
SK-BR-3 [11], 10 nM | 80.7

CC(C)C[C@H](NC(=O)[C@@H](COC(C)(C)C)NC(=O)[C@H](Cc1ccc(O)cc1)NC(=O)[C@H](CO)NC(=O)[C@H](Cc1c[nH]c2ccccc12)NC(=O)[C@H](Cc1cnc[nH]1)NC(=O)[C@@H]1CCC(=O)N1)C(=O)N[C@@H](CCCNC(=N)N)C(=O)N1CCC[C@H]1C(=O)NNC(N)=O [Goserelin]
Details | normalised viability [%]
BT-474, 100 nM | 115
BT-549 [4], 10 nM | 85.9
BT-549 [4], 1000 nM | 88
BT-549 [4], 10000 nM | 103
BT-549 [13], 100 nM | 102
CAL-51, 10 nM | 113
CAL-85-1 [1], 3 nM | 102
CAL-85-1 [1], 30 nM | 93.9
CAL-85-1 [1], 100 nM | 102
CAL-85-1 [10], 10 nM | 102
CAL-120 [8], 10 nM | 96.4
CAL-120 [8], 1000 nM | 93.1
CAL-120 [8], 10000 nM | 94.4
CAL-120 [17], 100 nM | 107
CAL-148 [5], 3 nM | 92
CAL-148 [5], 30 nM | 97
CAL-148 [5], 100 nM | 98.9
CAL-148 [14], 10 nM | 101
DU-4475, 10 nM | 96.2
HCC1143, 100 nM | 87.3
HCC1599, 100 nM | 94.4
HCC1937, 100 nM | 104
HDQ-P1, 10 nM | 117
Hs578T [6], 10 nM | 105
Hs578T [6], 1000 nM | 98
Hs578T [6], 10000 nM | 104
Hs578T [15], 100 nM | 113
MDA-MB-231, 100 nM | 91.8
MDA-MB-436 [3], 10 nM | 95.6
MDA-MB-436 [3], 1000 nM | 97.3
MDA-MB-436 [3], 10000 nM | 94
MDA-MB-436 [12], 100 nM | 102
MDA-MB-453 [7], 3 nM | 115
MDA-MB-453 [7], 30 nM | 101
MDA-MB-453 [7], 100 nM | 102
MDA-MB-453 [16], 10 nM | 102
MDA-MB-468, 100 nM | 101
MFM-223 [9], 10 nM | 92.1
MFM-223 [9], 1000 nM | 87.8
MFM-223 [9], 10000 nM | 100
MFM-223 [18], 100 nM | 91.3
SK-BR-3 [2], 10 nM | 98.8
SK-BR-3 [2], 1000 nM | 106
SK-BR-3 [2], 10000 nM | 94.7
SK-BR-3 [11], 100 nM | 110

COc1ccc(S(=O)(=O)Nc2cccnc2Nc2ccc(O)cc2)cc1 [ABT-751]
Details | normalised viability [%]
BT-474, 100 nM | 112
BT-549 [4], 10 nM | 94.1
BT-549 [4], 1000 nM | 77.2
BT-549 [4], 10000 nM | 13.6
BT-549 [13], 100 nM | 89
CAL-51, 10 nM | 113
CAL-85-1 [1], 3 nM | 94.1
CAL-85-1 [1], 30 nM | 86.2
CAL-85-1 [1], 100 nM | 88.9
CAL-85-1 [10], 10 nM | 88.8
CAL-120 [8], 10 nM | 81.7
CAL-120 [8], 1000 nM | 26.8
CAL-120 [8], 10000 nM | 21.6
CAL-120 [17], 100 nM | 93
CAL-148 [5], 3 nM | 91.9
CAL-148 [5], 30 nM | 89.2
CAL-148 [5], 100 nM | 86.7
CAL-148 [14], 10 nM | 90.4
DU-4475, 10 nM | 109
HCC1143, 100 nM | 87.2
HCC1599, 100 nM | 102
HCC1937, 100 nM | 92.4
HDQ-P1, 10 nM | 106
Hs578T [6], 10 nM | 98.9
Hs578T [6], 1000 nM | 16.6
Hs578T [6], 10000 nM | 14.4
Hs578T [15], 100 nM | 88.1
MDA-MB-231, 100 nM | 91.4
MDA-MB-436 [3], 10 nM | 86
MDA-MB-436 [3], 1000 nM | 48.3
MDA-MB-436 [3], 10000 nM | 21.4
MDA-MB-436 [12], 100 nM | 108
MDA-MB-453 [7], 3 nM | 105
MDA-MB-453 [7], 30 nM | 81.8
MDA-MB-453 [7], 100 nM | 67.9
MDA-MB-453 [16], 10 nM | 87
MDA-MB-468, 100 nM | 101
MFM-223 [9], 10 nM | 94.7
MFM-223 [9], 1000 nM | 62.6
MFM-223 [9], 10000 nM | 25.4
MFM-223 [18], 100 nM | 91
SK-BR-3 [2], 10 nM | 93.3
SK-BR-3 [2], 1000 nM | 16.9
SK-BR-3 [2], 10000 nM | 15.6
SK-BR-3 [11], 100 nM | 71.6
